Source: EP4008330A1, “COMBINED INHIBITION OF AMINO ACID TRANSPORTERS FOR INHIBITING HUMAN PLASMACYTOID DENDRITIC CELL ACTIVITY DURING AUTOIMMUNITY” (Max-Planck-Gesellschaft zur Förderung der Wissenschaften …, priority 2020, dated 2022)

Columns and labels:
[1] = target: T1, System LAA transporters SLC7A5 and SLC3A2 (Homo sapiens, UniProt Q01650); experiment: Kynurenine uptake by pDC (flow cytometry), System LAA transporter activity; type: cell-based
T1 construct: freshly isolated pDC from PBMC of healthy donors and SLE patients also expressed System LAA transporters SLC7A5 and SLC3A2; endogenous in cells; host or cells: Primary plasmacytoid dendritic cells isolated from PBMC of human donors
T1 sequence (Q01650 whole entry): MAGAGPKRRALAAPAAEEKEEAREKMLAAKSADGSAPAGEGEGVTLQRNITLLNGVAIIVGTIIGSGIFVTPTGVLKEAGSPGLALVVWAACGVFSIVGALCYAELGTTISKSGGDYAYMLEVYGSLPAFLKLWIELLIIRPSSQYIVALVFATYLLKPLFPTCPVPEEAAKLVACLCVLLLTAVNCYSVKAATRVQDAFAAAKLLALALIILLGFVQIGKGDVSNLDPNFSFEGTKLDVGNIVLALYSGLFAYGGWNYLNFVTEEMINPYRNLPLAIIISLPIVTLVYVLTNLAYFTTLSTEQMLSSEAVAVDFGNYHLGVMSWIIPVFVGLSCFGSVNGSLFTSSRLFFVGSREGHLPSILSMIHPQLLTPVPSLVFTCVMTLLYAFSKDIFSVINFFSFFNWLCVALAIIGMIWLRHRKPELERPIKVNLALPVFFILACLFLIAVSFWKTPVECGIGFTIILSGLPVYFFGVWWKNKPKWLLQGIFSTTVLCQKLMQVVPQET
T1 sequence (P08195 103-630 partner limits assumed): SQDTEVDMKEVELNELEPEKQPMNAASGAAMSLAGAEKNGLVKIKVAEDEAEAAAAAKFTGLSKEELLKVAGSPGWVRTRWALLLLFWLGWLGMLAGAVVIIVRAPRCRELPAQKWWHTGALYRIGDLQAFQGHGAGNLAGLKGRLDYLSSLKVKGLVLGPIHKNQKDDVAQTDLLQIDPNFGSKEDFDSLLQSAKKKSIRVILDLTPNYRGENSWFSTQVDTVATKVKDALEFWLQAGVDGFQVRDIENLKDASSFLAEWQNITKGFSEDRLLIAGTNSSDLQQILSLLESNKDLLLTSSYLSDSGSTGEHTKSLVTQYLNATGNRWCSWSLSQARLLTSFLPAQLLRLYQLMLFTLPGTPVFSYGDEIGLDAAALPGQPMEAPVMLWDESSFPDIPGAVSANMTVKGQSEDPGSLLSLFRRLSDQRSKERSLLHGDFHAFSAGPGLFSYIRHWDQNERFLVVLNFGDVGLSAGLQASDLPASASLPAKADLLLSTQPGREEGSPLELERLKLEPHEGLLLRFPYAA
Procedure: (§1) Briefly, stained cells were incubated in HBSS (Gibco) with 200 µM kynurenine (Sigma) for 4 min at 37°C.
To assess whether IL-3-induced expression of SLC7A5 and SLC3A2 allowed the assembly of a functional System LAA transporter, we used a flow cytometry-based assay that measures the ability of cells to take up kynurenine, a naturally fluorescing molecule that is transported into cells via SLC7A5; this can be used as a proxy measurement of large neutral amino acid (LNAA) uptake. […] Of interest, freshly isolated pDC from PBMC of healthy donors and SLE patients also expressed System LAA transporters SLC7A5 and SLC3A2 (Figure 5D) and furthermore pDC from healthy donors had the ability to take up kynurenine immediately ex vivo, a process that was blocked by BCH (Figure 5E).

[2] = tested on: STAT5 (Y694); experiment: STAT5 (Y694) phosphorylation in pDC by flow cytometry; type: cell-based, human; conditions: IL-3-induced; pDC with inhibitor o/n
Procedure: (§2) Cells were stimulated with 5 µM CpG-A ODN (ODN2216, InvivoGen) for times indicated.
(§3) Isolated pDC staining was performed in 0.5% BSA in PBS for 10 min at RT, dead cells were excluded with the LIVE/DEAD Fixable Near-IR or Aqua Dead Cell Stain Kits (Thermo scientific). Unspecific binding was blocked with FcR blocking reagent (Miltenyi). The following fluorochrome-conjugated Abs were used for intracellular staining: IFNα (Miltenyi, LT27:295), TNFα (BioLegend, clone Mab11), pS6(S235/236; CST, clone D57.2.2e), pSTAT5 (Y694; CST, clone C71E5). After surface staining, cells were fixed using Fixation/Permeabilization Kit (BD Bioscience) for 20 min at 4°C, and then additionally permeabilized in Perm/Wash solution for 30 min at 4°C, after which cells were incubated with antibodies against intracellular proteins, at previously determined antibody dilutions, for 30 min at RT. […] Cycloheximide (Sigma) at 100 µg/ml was used as a positive control for protein synthesis inhibition.

[3] = tested on: SLC7A5 and SLC3A2; experiment: SLC7A5 and SLC3A2 mRNA expression in pDC (PrimeFlow RNA); conditions: pDC in IL-3 and inhibitor o/n, then CpG-A 5h
[4] = tested on: SLC7A11; experiment: SLC7A11 mRNA expression in pDC (PrimeFlow RNA); type: cell-based, human; conditions: pDC in IL-3 and inhibitor o/n; for SLC7A11 and SLC7A5 mRNA expression (double positive cells): then CpG-A 5h (Figure 12B)
Procedure: as §2, §1

[5] = tested on: pDC; experiment: Combined kynurenine uptake and pS6 (S235/236) in pDC (double positive cells); type: cell-based, human
Source text: To confirm that functional System LAA transport is a prerequisite for mTORC1 activation in response to CpG-A, the effects of IL-3 and CpG-A were examined on combined measurements of kynurenine uptake, S6 (S235/236) phosphorylation and cytokine production.

[6] = tested on: mTORC1; experiment: S6 (S235/236) phosphorylation in pDC by flow cytometry, as measure of mTORC1 activity; type: cell-based, human; conditions: pDC in IL-3 with inhibitor, stimulated with CpG-A; 20 nM RAP, 1µM AZD, BAR
Procedure: as §2, §3

[7] = tested on: pDC; experiment: Intracellular IFNα and TNFα production by CpG-A-stimulated isolated pDC (flow cytometry); type: cell-based, human
Source text: PBMC from buffy coats from healthy blood donors were isolated by density gradient centrifugation using SepMate tubes and Lymphoprep (both […] Technologies). pDC were negatively selected from PBMC using the plasmacytoid dendritic cell isolation kit II (Miltenyi Biotec). Buffy coats were kindly provided by the Institute for Transfusion Medicine and Gene Therapy, Medical Center - University of Freiburg (donor consent, anonymized). Skin samples of lupus patients were obtained through the biobank of the SFB829 (Z4 project) with informed consent from all the subjects and ethical approval obtained from the Ethics Committee at the University of Cologne (votes 12-163 and 19-1146). SLE PBMC were provided by ImmRheum biobank in Freiburg, a project that was approved by the local ethical committee (votes 507/16 and 624/14). All patients who provided blood to the biobank had provided written informed consent.
as §2
as §3, with “The following fluorochrome-conjugated monoclonal antibodies were used for staining cell surface markers: IL-3Ra (CD123) (Miltenyi Biotec, clone AC145), HLA-DR (BD Bioscience, clone G46-6), CD116 (BD Bioscience, clone hGMCSFR-M1), CD4 (Biolegend, clone A161A1). […] Isolated” for “Isolated”

[8] = tested on: pDC; experiment: Live cells / cell death of isolated pDC (LIVE/DEAD stain); type: cell-based
Procedure: as §2, §3

[9] = tested on: pDC; experiment: De novo protein synthesis in pDC, incorporation of puromycin analogue (OPP); type: cell-based, human; conditions: pDC in IL-3, CpG-A for 10 h and inhibitor
[10] = tested on: pDC; experiment: Lactate levels in pDC culture medium (Cedex Bio Analyzer); type: cell-based, human; conditions: pDC in IL-3, CpG-A and inhibitor for 10 h
Procedure: as §2
Glucose and lactate were measured in cell culture supernatants using the Cedex Bio Analyzer (Roche) and data presented as mmol/L.

[11] = cultured pDC +/- IL-3, +/- CpG-A, 200 µM kynurenine 4 min, 10 mM BCH at time of uptake
[12] = pDC in IL-3 and inhibitor o/n, then CpG-A 5h, 20 nM RAP, 250 nM TOR, 10µM HPA, 1µM AZD, BAR, 5 µM ERA, 100 or 200 µM SAZ
[13] = pDC in IL-3 and inhibitor o/n, then CpG-A 5h, 20 nM RAP, 10µM HPA, 1µM AZD, BAR, 5 µM ERA, 100 or 200 µM SAZ
[14] = pDC in IL-3, CpG-A and inhibitors for 5h after o/n rest (Figure 4E), 10µM HPA, 1 µM oligomycin

Cc1cc(Nc2nc(N[C@@H](C)c3ncc(F)cn3)ncc2Cl)n[nH]1 [AZD, AZD1480] was tested, and the kynurenine uptake [1, 11] was “reductions”, the “pSTAT5 (Y694) expression” value [2] was “inhibited” and the “SLC7A5 and SLC3A2 mRNA expression” value [3] was “significantly inhibited”. For the same molecule, the “SLC7A11 and SLC7A5 mRNA expression (double positive cells)” value [4] was “lost expression of both transporters”, the “kynurenine uptake and pS6 (S235/236) expression (cells with high rates of kynurenine uptake and mTORC1 activity)” value ([5]; pDC in GM-CSF and inhibitor o/n, then CpG-A 5h (Figure 8)) was “inhibited” and the “pS6 (S235/236) expression” value [6] was “reductions”. For the same molecule, the IFNα production [7, 12] was “lost and decrease”, the TNFα production [7, 13] was “decrease” and the IFNα production ([7]; pDC maintained in GM-CSF and inhibitor o/n, then CpG-A 5h (Figure 8)) was “inhibited”.
CCS(=O)(=O)N1CC(CC#N)(n2cc(-c3ncnc4[nH]ccc34)cn2)C1 [BAR, baricitinib] was tested, and the “live cells (cell death / cell survival)” value ([8]; BAR 25 to 100 nM, alone or with SAZ, IL-3 o/n, then CpG-A 5h (Figure 14C)) was “increased cell death”.
In the case of NC1(C(=O)O)CC2CCC1C2 (centres unmarked) [BCH, 2-Aminobicyclo[2.2.1]heptane-2-carboxylic acid], the kynurenine uptake [1, 11] is reported as “abrogated transport of kynurenine in all of the conditions” and the kynurenine uptake ([1]; pDC from healthy donors immediately ex vivo, 10 mM BCH) is reported as “blocked”.
In the case of CCOc1ccccc1-n1c(C(C)N2CCN(C(=O)COc3ccc(Cl)cc3)CC2)nc2ccccc2c1=O (centres unmarked) [ERA, erastin], the “live cells (cell death)” value [8] is reported as “absence of appreciable cell death”.
With CC(C)[C@H]1CC[C@@]2(CO2)[C@H]2C(=O)OCC(C(=O)O)=C[C@H]12 [HPA, heptelidic (koningic) acid] the “protein synthesis measured by incorporation of puromycin analogue (OPP)” value [9] was “caused reductions in overall protein synthesis”, the “lactate levels in medium” value [10] was “reduced secreted lactate levels to below those in cultures of unstimulated pDC” and the IFNα production [7, 12] was “reductions”. For the same molecule, the TNFα production [7, 13] was “reductions”.
CC[C@H]1/C=C/C=C/C[C@@H](C)[C@H](O)[C@@](C)(O)C(=O)[C@@H](C)[C@H](O)[C@@H](C)C(=O)[C@@H](C)[C@H](O)[C@@H](C)/C=C/C(=O)O[C@@H]2[C@H](C)[C@H](CC1)O[C@]1(CC[C@H](C)[C@H](C[C@@H](C)O)O1)[C@H]2C [OLI, oligomycin] was tested, and the IFNα production [7, 14] was “inhibited IFNα production to approximately the same extent as HPA” and the TNFα production [7, 14] was “no effect”.
In the case of O=C(O)c1cc(/N=N/c2ccc(S(=O)(=O)Nc3ccccn3)cc2)ccc1O [Sulfasalazine, sulfasalazine], the “kynurenine uptake and pS6 (S235/236) expression (cells positive for both)” value ([5]; pDC in IL-3 and inhibitor o/n, then CpG-A 5h) is reported as “reductions”, the IFNα production [7, 12] is reported as “inhibited” and the TNFα production [7, 13] is reported as “inhibited”.
CCC(=O)N1CCN(c2ccc(-n3c(=O)ccc4cnc5ccc(-c6cnc7ccccc7c6)cc5c43)cc2C(F)(F)F)CC1 [TOR, torin1] was tested, and the “lactate levels in medium” value [10] was “decline in CpG-A-induced lactate release”, the “SLC7A11 mRNA expression” value ([4]; then CpG-A 5h) was “inhibited” and the “SLC7A11 and SLC7A5 mRNA expression (double positive cells)” value [4] was “similar, although less pronounced effect”. The IFNα production [7, 12] was “similar, although less pronounced effect”.
